Here are results for 16 compounds from patent publication US9067937B2 (priority 2012, dated 2015).

Counter-ions that a name gives are not always drawn.

For one assay, the system named is DU4475 cells. As to the kind of experiment: Cell-based assay, anti-proliferative activity (Cell Counting Kit-8, 72 hours). Set-up: species or system human. To be noted: Homo sapiens, DU-4475, 72 h, read-out: IC50 (μM) (DU4475). The procedure, abridged:
(§1)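 Cells seeded at 2,000–3,000 cells/well and exposed to candidate MELK inhibitors for 72 hours; growth measured with Cell Counting Kit-8. IC50 values calculated from the growth read-out.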
(Tetrazolium dyes change colour on reduction, which living cells bring about.)

Another assay relates to 22Rv1 cells. Described as above. More on the design: species or system human. The following applies: Homo sapiens, 22Rv1, 72 h, read-out: IC50 (μM) (22Rvl). The procedure, abridged: as §1
In a further assay the test system is T47D cells. Described as above. Set-up: species or system human. To be noted: Homo sapiens, T47D, 72 h, read-out: IC50 (μM) (T47D). The procedure, abridged: as §1
A further assay deals with A549 cells. Described as above. The following applies: Homo sapiens, A549, 72 h, read-out: IC50 (μM) (A549). More on the design: species or system human. The procedure, abridged: as §1
A further assay concerns the target MELK (Homo sapiens, UniProt Q14680). Put plainly: Kinase assay (IMAP fluorescence polarization, FITC-labeled histone H3 peptide). Type of assay: biochemical. The following applies: 50 micro-M ATP. The procedure, abridged:
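Kinase (0.8 ng/μL) reacted with 100 nM FITC-histone H3 peptide and 50 μM ATP in 20 mM HEPES, 0.3 mM MgCl2, 2 mM DTT, 0.01% Tween-20, pH 7.4, for 1 hour at room temperature. Phosphorylation read by IMAP fluorescence polarization after adding binding solution; IC50 from four-parameter fit.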
(Polarisation of emitted light reports the rotation of a fluorescent probe.)

The subject of the next assay is HT1197 cells. As to the kind of experiment: Cell-based assay, anti-proliferative activity, MELK-negative control (Cell Counting Kit-8, 72 hours). More on the design: species or system human. The following applies: Homo sapiens, HT1197, 72 h, read-out: IC50 (μM) (HTll97). As for the experimental part:
100 micro-L of cell suspension was seeded onto 96-well microtiter plate (ViewPlate-96FTC, PerkinElmer). The initial cell concentration of 22Rv1, T47D, A549, DU4475, and HT1197 were 3,000 cells/well, 2,000 cells/well and 2,500 cells/well, respectively. Cellular growth was determined using Cell Counting Kit-8 (DOJINDO) at 72 hours after the exposure of the candidate inhibitors. […] Accurate IC50 values were calculated as described previously.

Chain of MELK (Q14680 whole entry, looked up): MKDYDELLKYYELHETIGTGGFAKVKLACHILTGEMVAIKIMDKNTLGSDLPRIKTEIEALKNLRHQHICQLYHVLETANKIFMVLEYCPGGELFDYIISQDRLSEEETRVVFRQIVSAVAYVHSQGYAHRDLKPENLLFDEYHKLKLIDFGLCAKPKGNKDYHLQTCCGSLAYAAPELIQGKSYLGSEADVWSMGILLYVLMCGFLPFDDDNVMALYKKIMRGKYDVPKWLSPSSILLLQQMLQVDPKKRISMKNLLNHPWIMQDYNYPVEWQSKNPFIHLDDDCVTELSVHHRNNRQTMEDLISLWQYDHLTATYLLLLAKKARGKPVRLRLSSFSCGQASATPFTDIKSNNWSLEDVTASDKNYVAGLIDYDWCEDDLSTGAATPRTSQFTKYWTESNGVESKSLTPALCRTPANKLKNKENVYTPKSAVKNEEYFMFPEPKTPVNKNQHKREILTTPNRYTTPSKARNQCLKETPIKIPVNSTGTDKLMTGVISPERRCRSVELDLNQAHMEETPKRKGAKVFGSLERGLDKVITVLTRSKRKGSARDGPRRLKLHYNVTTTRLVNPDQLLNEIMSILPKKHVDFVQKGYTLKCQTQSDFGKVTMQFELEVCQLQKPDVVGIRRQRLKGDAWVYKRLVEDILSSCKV

With `CC(=O)c1cnc2ccc(-c3cc(F)c(O)c(Cl)c3)nc2c1Nc1ccc(N2CCC[C@@H](N)C2)nc1` [Example 96, (R)-1-{4-[6-(3-Aminopiperidin-1-yl)pyridin-3-ylamino]-6-(3-chloro-5-fluoro-4-hydroxyphenyl)-1,5-naphthyridin-3-yl}ethanone], the half-inhibitory concentration (IC50) (as a rule, the concentration that inhibits the measured activity by half) with DU4475 cells was found to be 0.024 µM; in the assay with 22Rv1 cells, 0.026 µM; with T47D cells, 0.018 µM; in the assay on A549 cells it was 0.035 µM; at MELK, 0.0036 µM; in the assay with HT1197 cells, 0.43 µM.
For `CC(=O)c1cnc2ccc(-c3cc(Cl)c(O)c(Cl)c3)nc2c1Nc1cnn(C2CCN(C)CC2)c1` [Example 33, 1-[6-(3,5-Dichloro-4-hydroxyphenyl)-4-[1-(1-methylpiperidin-4-yl)-1H-pyrazol-4-ylamino]-1,5-naphthyridin-3-yl]ethanone dihydrochloride], the IC50 in the assay with DU4475 cells came out at 0.34 µM; in the assay on 22Rv1 cells it was 0.64 µM; with T47D cells it was 0.35 µM; in the assay on A549 cells, 0.93 µM; against MELK, 0.0078 µM; with HT1197 cells it was 100 µM.
On to `COc1cc(-c2ccc3ncc(C(C)=O)c(N[C@H]4CC[C@H](CN(C)C)CC4)c3n2)cc(Cl)c1O` [Example 8, 1-(6-(3-Chloro-4-hydroxy-5-methoxyphenyl)-4-{trans-4-[(dimethylamino)methyl]cyclohexyl-amino}-1,5-naphthyridin-3-yl)ethanone dihydrochloride], for which the IC50 in the assay on DU4475 cells is 0.0064 µM; in the assay on 22Rv1 cells, 0.044 µM; in the assay with T47D cells it was 0.013 µM; with A549 cells it was 0.024 µM; against MELK, 0.0015 µM; in the assay on HT1197 cells, 0.24 µM.
With `CC(=O)c1cnc2ccc(-c3cc(Cl)c(O)c(Cl)c3)nc2c1N[C@H]1CC[C@H](CN2CCNCC2)CC1` [Example 70, 1-{6-(3,5-Dichloro-4-hydroxyphenyl)-4-[trans-4-(piperazin-1-ylmethyl)cyclohexylamino]-1,5-naphthyridin-3-yl}ethanone trihydrochloride], the IC50 in the assay with DU4475 cells worked out at 0.011 µM; in the assay on 22Rv1 cells, 0.031 µM; with T47D cells, 0.021 µM; in the assay on A549 cells it was 0.084 µM; on MELK, 0.0006 µM; with HT1197 cells it was 3.9 µM.
Take `CN(C)CCOc1ccc(Nc2c(S(C)(=O)=O)cnc3ccc(-c4cc(F)c(O)c(Cl)c4)nc23)cn1` [Example 25, 2-Chloro-4-(8-{6-[2-(dimethylamino)ethoxy]pyridin-3-ylamino}-7-(methylsulfonyl)-1,5-naphthyridin-2-yl)-6-fluorophenol dihydrochloride]: the IC50 is 0.74 µM in the assay with DU4475 cells; 2.8 µM in the assay with 22Rv1 cells; 0.7 µM in the assay with T47D cells; 5.9 µM in the assay on A549 cells; 0.019 µM against MELK; 21 µM in the assay on HT1197 cells.
As to `CC(=O)c1cnc2ccc(-c3cnc(C#N)nc3)nc2c1N[C@H]1CC[C@H](CN(C)C)CC1` [Example 57, 5-(7-Acetyl-8-{trans-4-[(dimethylamino)methyl]cyclohexylamino}-1,5-naphthyridin-2-yl)pyrimidine-2-carbonitrile], the half-inhibitory concentration (IC50) was 0.22 µM in the assay on DU4475 cells; 0.24 µM in the assay with 22Rv1 cells; 0.089 µM in the assay with T47D cells; 0.56 µM in the assay on A549 cells; 0.0012 µM against MELK; 0.38 µM in the assay with HT1197 cells.
In the case of `CC(=O)c1cnc2ccc(-c3cc(Cl)c(O)c(Cl)c3)nc2c1N[C@H]1CC[C@H](CN2CCCC2)CC1` [Example 61, 1-{6-(3,5-Dichloro-4-hydroxyphenyl)-4-[trans-4-(pyrrolidin-1-ylmethyl)cyclohexylamino]-1,5-naphthyridin-3-yl}ethanone dihydrochloride], the half-maximal inhibitory concentration (IC50) in the assay on DU4475 cells worked out at 0.0044 µM; with 22Rv1 cells, 0.011 µM; in the assay on T47D cells it was 0.0069 µM; in the assay on A549 cells it was 0.012 µM; against MELK it was 0.0004 µM; in the assay with HT1197 cells it was 0.15 µM.
Turning to `N[C@@H]1CCCN(c2ccc(Nc3c(C(=O)C4CC4)cnc4ccc(-c5cc(F)c(O)c(Cl)c5)nc34)cn2)C1` [Example 202, (R)-(4-{[6-(3-aminopiperidin-1-yl)pyridin-3-yl]amino}-6-(3-chloro-5-fluoro-4-hydroxyphenyl)-1,5-naphthyridin-3-yl) (cyclopropyl) methanone], the half-inhibitory concentration (IC50) in the assay on DU4475 cells was determined as 0.001 µM; with 22Rv1 cells it was 0.0044 µM; in the assay with T47D cells, 0.0038 µM; with A549 cells, 0.0054 µM; against MELK, 0.00046 µM; in the assay with HT1197 cells, 0.047 µM.
Consider `CC(=O)c1cnc2ccc(-c3cc(Cl)c(O)c(Cl)c3)nc2c1Nc1ccc(CN2CCCC2)cc1` [Example 60, dihydrochloride], for which the concentration for half-maximal inhibition (IC50) with DU4475 cells came to 0.041 µM; with 22Rv1 cells, 0.1 µM; in the assay on T47D cells, 0.066 µM; in the assay with A549 cells, 0.11 µM; on MELK, 0.0043 µM; with HT1197 cells it was 1.1 µM.
Take `CC(=O)c1cnc2ccc(-c3cc(F)c(O)c(Cl)c3)nc2c1Nc1cccc(CCN2CCCC2)c1` [Example 20, 1-[6-(3-Chloro-5-fluoro-4-hydroxyphenyl)-4-{3-[2-(pyrrolidin-1-yl)ethyl]phenylamino}-1,5-naphthyridin-3-yl]ethanone dihydrochloride]: the IC50 with DU4475 cells worked out at 0.21 µM; in the assay on 22Rv1 cells, 0.81 µM; in the assay on T47D cells, 0.5 µM; with A549 cells, 0.31 µM; at MELK, 0.14 µM; with HT1197 cells it was 4.8 µM.
With `CC(=O)c1cnc2ccc(-c3cc(F)c(O)c(Cl)c3)nc2c1NC[C@H]1CC[C@H](N(C)C)CC1` [Example 90, 1-[6-(3-Chloro-5-fluoro-4-hydroxyphenyl)-4-{[trans-4-(dimethylamino)-cyclohexyl]methylamino}-1,5-naphthyridin-3-yl]ethanone dihydrochloride], the IC50 in the assay with DU4475 cells was 0.027 µM; in the assay with 22Rv1 cells it was 0.052 µM; in the assay with T47D cells, 0.03 µM; in the assay with A549 cells, 0.12 µM; against MELK, 0.0024 µM; in the assay on HT1197 cells, 10 µM.
`CC(=O)c1cnc2ccc(-c3cc(Cl)c(O)c(Cl)c3)nc2c1Nc1ccc(CCN(C)C)cc1` [Example 29, 1-[6-(3,5-Dichloro-4-hydroxyphenyl)-4-{4-[2-(dimethylamino)ethyl]phenylamino}-1,5-naphthyridin-3-yl)ethanone dihydrochloride]: the IC50 worked out at 0.028 µM with DU4475 cells; 0.084 µM in the assay on 22Rv1 cells; 0.085 µM with T47D cells; 0.11 µM with A549 cells; 0.0026 µM against MELK; 0.68 µM in the assay on HT1197 cells.
`CC(=O)c1cnc2ccc(-c3cn[nH]c3)nc2c1N[C@H]1CC[C@H](CN(C)C)CC1` [Example 42, 1-(4-{trans-4-[(Dimethylamino)methyl]cyclohexylamino}-6-(1H-pyrazol-4-yl)-1,5-naphthyridin-3-yl)ethanone trihydrochloride]: the IC50 in the assay with DU4475 cells was 0.045 µM; in the assay with 22Rv1 cells, 0.063 µM; with T47D cells, 0.036 µM; in the assay on A549 cells, 0.049 µM; on MELK, 0.017 µM; with HT1197 cells, 0.06 µM.
`CC(=O)c1cnc2ccc(-c3cc(Cl)c(O)c(Cl)c3)nc2c1NC1CCN(C)CC1` [Example 45, 1-{6-(3,5-Dichloro-4-hydroxyphenyl)-4-[(1-methylpiperidin-4-yl)amino]-1,5-naphthyridin-3-yl}ethanone]: the IC50 came to 0.096 µM with DU4475 cells; 0.096 µM in the assay on 22Rv1 cells; 0.086 µM with T47D cells; 0.065 µM in the assay on A549 cells; 0.0058 µM against MELK; 0.45 µM in the assay with HT1197 cells.
As for `CC(=O)c1cnc2ccc(-c3cc(F)c(O)c(Cl)c3)nc2c1Nc1ccc(N2CCC(N(C)C)C2)nc1` (stereo not drawn) [Example 52, 1-[6-(3-Chloro-5-fluoro-4-hydroxyphenyl)-4-{6-[3-(dimethylamino)pyrrolidin-1-yl]pyridin-3-ylamino}-1,5-naphthyridin-3-yl]ethanone trihydrochloride], the half-inhibitory concentration (IC50) with DU4475 cells is 0.4 µM; in the assay on 22Rv1 cells, 0.44 µM; with T47D cells, 0.18 µM; in the assay with A549 cells, 0.39 µM; at MELK, 0.027 µM; with HT1197 cells, 2 µM.
For `CNC1CCN(c2ccc(Nc3c(C(C)=O)cnc4ccc(-c5cc(F)c(O)c(Cl)c5)nc34)cn2)C1` (stereo not drawn) [Example 54, 1-(6-(3-Chloro-5-fluoro-4-hydroxyphenyl)-4-{6-[3-(methylamino)pyrrolidin-1-yl]pyridin-3-ylamino}-1,5-naphthyridin-3-yl)ethanone trihydrochloride], the IC50 worked out at 0.11 µM with DU4475 cells; 0.086 µM in the assay with 22Rv1 cells; 0.04 µM with T47D cells; 0.17 µM in the assay on A549 cells; 0.012 µM on MELK; 3.9 µM in the assay on HT1197 cells.
